Activity calls are given as the source filed them.
How the values were obtained:
[1] = tested on: Streptococcus sp. 'group A'; assay: Streptococcus pyogenes SK(-)GAS viability under kanamycin – luminescence, BacTiterGlo, confirmation, counter-screen for streptokinase expression inhibitor project, dose response (AID 1900); format: functional, organism-based
[2] = tested on: Streptococcus; assay: GAS UMAA2166 growth inhibition – luminescence, BacTiterGlo, counter-screen for streptokinase expression inhibitor project, dose response (AID 1915); format: functional, organism-based;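 note: potency for reduction of bacterial viability or growth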
[3] = molecular target: T1, Streptokinase A (Streptococcus pyogenes serotype M1, UniProt P10520); assay: viability-normalized secreted streptokinase activity reduction – plasminogen activation absorbance, OD405, dose response (AID 1914); format: functional, Streptococcus pyogenes M1 GAS;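 note: secreted streptokinase activity via plasminogen activation per viability signal from cell pellet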
T1 sequence (P10520 whole entry): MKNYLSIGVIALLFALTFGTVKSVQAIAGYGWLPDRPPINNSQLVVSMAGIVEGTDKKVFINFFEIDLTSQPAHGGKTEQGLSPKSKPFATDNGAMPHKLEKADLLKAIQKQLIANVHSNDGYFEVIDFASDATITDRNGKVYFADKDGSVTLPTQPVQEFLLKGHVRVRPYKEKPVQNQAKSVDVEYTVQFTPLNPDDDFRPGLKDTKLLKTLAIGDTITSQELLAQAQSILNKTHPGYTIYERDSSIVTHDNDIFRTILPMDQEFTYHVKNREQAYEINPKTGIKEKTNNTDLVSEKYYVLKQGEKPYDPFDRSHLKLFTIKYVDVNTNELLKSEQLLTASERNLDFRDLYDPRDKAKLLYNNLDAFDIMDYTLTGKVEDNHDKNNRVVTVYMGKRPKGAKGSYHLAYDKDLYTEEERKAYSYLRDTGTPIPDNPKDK

[4] = bead-based luminescence quenchers, dual-tagged ARNT – biochemical, AlphaScreen, cherry-pick, artefact control for ARNT-TACC3 interaction inhibitor project, dose response (AID 651705); format: functional;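 note: AlphaScreen bead proximity signal that flags compounds interfering with the detection technology; potency reflects signal decrease which marks the compound as an assay artifact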
[5] = tested on: INS1; assay: INS-1E survival protection against cytokine death – cell-based, luminescence, retest, dose response (AID 449756); format: functional; details: Rattus norvegicus, INS1;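 note: cell death triggered by IL-1 beta plus TNF-alpha plus IFN-gamma mixture; protective hits raise ATP signal compared with cytokine alone wells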
[6] = molecular target: T2, Fatty acid synthase (Homo sapiens, UniProt P49327); assay: inhibition of human FAS-TE enzyme activity – biochemical, kinetic fluorescence intensity, dose response (AID 624326); format: functional;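 note: rate of fluorescence rise from hydrolysis of a fluorogenic O-methyl fluorescein ester substrate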
[7] = molecular target: T2, Fatty acid synthase; assay: inhibition of human FAS-TE enzyme activity – biochemical, endpoint fluorescence intensity, uHTS hits, dose response (AID 624327); format: functional;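 note: fluorescence from hydrolysis of an O-methyl fluorescein acyl ester substrate by the enzyme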
[8] = molecular target: T3, Microphthalmia-associated transcription factor (Homo sapiens, UniProt O75030); assay: reducers of TRPM1 reporter luminescence, concentration series – cell-based, SK-MEL-5, cherry-picked, set 3, MITF inhibitor project, dose response (AID 493073); format: functional;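 note: SK-MEL-5 melanoma cells with luciferase driven by the MITF target TRPM1 promoter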
T3 sequence (O75030 whole entry): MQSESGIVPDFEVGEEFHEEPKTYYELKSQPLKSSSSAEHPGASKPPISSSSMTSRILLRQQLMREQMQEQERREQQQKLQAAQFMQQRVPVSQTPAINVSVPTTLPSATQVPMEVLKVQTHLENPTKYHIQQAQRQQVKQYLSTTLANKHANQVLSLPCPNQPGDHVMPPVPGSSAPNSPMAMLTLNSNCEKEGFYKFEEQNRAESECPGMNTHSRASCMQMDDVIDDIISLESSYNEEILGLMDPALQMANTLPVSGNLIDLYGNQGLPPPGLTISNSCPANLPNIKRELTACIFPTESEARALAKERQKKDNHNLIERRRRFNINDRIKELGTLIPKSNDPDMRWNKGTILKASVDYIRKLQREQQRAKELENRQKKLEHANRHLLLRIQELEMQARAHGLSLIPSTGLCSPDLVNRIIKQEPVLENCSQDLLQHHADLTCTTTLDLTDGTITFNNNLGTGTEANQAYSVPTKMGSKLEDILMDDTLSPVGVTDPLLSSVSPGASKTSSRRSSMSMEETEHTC

[9] = tested on: Escherichia coli; assay: microbe, parasite or virus in culture
[10] = tested on: Vero; assay: cells; format: functional; details: Chlorocebus sabaeus
[11] = molecular target: T4, Sentrin-specific protease 1 (Homo sapiens, UniProt Q9P0U3); assay: Dose response confirmation of small molecule inhibitors of the catalytic domain of the SUMO protease, SENP1 in a FRET assay.; format: functional; details: read-out: IC50_Mean
T4 sequence (Q9P0U3 whole entry): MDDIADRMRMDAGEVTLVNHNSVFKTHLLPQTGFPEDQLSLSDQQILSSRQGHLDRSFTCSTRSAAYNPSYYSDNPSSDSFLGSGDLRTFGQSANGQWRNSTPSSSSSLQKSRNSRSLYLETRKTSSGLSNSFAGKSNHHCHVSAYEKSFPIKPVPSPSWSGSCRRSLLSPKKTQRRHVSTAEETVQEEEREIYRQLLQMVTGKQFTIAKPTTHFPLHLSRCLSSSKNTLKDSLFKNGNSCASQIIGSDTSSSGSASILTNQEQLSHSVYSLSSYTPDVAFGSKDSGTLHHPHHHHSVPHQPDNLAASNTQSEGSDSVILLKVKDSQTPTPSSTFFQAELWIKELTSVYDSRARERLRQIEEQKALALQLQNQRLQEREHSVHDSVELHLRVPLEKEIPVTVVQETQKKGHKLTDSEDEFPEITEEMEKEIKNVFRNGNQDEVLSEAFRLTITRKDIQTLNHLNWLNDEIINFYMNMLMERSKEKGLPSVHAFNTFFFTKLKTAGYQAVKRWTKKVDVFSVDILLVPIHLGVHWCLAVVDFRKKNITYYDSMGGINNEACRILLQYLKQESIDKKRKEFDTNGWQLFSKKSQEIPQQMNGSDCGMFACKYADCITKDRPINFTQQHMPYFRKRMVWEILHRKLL

[12] = molecular target: T4, Sentrin-specific protease 1; assay: SENP1 catalytic domain blockers, concentration series – biochemical, kinetic FRET, dose response (AID 651697); format: functional; details: read-out: IC50_Mean
[13] = intracellular Trypanosoma cruzi inhibitors in host cells – cell-based, plate reader, cherry-pick samples, set 3, dose response (AID 651818); format: functional;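 note: compounds incubated with infected cells for about four days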
[14] = molecular target: T5, Carboxy-terminal domain RNA polymerase II polypeptide A small phosphatase 1 (Homo sapiens, UniProt Q9GZU7); assay: CTDSP1 inhibitors, concentration-response, biochemical, absorbance readout, ultra-high-throughput screen actives (AID 540297); format: functional
T5 sequence (Q9GZU7 whole entry): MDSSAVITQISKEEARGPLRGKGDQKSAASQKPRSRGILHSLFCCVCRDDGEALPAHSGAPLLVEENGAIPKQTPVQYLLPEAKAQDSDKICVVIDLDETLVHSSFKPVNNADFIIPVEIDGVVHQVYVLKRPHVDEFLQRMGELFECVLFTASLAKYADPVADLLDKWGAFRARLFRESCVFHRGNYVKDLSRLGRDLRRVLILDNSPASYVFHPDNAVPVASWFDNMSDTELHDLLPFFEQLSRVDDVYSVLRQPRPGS

[15] = THP-1 cell cytotoxicity, dose response, cytotoxicity control for non-replicating M. tuberculosis project (AID 489025); format: functional
[16] = cells; format: functional
[17] = molecular target: Protein Wnt-3a (Mus musculus, UniProt P27467); assay: antagonism of Wnt3a pathway luciferase reporter – Wnt-LIGHT cells, luminescence, selectivity assay for Gli-SUFU antagonist project, dose response (AID 651570); format: functional; details: read-out: IC50_Mean;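 note: Wnt-LIGHT reporter cells stimulated with conditioned medium from Wnt3a-producing cells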
[18] = molecular target: T6, Short transient receptor potential channel 4 (Mus musculus, UniProt Q9QUQ5); assay: calcium entry via TRPC4 opening agents – cell-based, HEK293 TRPC4/mu-opioid, Fluo-4 calcium, dose response (AID 434937); format: functional
T6 sequence (Q9QUQ5 whole entry): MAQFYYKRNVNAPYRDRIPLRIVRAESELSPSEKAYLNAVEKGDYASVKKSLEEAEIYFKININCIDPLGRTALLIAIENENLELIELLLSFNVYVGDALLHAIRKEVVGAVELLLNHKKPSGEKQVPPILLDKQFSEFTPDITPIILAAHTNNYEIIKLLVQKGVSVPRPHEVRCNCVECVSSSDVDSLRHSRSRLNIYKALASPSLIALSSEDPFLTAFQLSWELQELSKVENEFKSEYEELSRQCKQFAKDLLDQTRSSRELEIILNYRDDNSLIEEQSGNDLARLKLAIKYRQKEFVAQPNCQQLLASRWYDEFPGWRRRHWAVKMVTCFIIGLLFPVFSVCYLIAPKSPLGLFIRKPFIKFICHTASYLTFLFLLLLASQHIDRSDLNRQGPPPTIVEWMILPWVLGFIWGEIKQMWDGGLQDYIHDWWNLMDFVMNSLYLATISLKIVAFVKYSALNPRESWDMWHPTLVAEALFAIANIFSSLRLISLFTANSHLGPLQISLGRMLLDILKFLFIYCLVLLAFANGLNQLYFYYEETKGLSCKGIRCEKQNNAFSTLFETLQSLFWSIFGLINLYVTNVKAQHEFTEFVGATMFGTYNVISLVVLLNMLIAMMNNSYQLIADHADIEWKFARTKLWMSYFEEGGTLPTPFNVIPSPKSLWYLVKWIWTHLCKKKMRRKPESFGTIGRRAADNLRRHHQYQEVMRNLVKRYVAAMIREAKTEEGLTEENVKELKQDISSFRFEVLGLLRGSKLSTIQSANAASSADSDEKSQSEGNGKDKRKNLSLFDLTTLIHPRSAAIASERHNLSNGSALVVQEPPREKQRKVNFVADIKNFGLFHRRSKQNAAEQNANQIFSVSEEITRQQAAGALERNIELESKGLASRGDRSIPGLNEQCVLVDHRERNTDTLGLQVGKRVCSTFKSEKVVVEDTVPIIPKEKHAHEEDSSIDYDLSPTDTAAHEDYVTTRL

[19] = molecular target: Nonstructural protein 1 (Influenza A virus, UniProt Q194T2); format: functional, Influenza A virus (A/California/07/2009(H1N1))
[20] = Trypanosoma cruzi growth suppression in host cells – NIH3T3 host cells, beta-gal luminescence, confirmation (AID 2044); format: functional, cell-based;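 note: intracellular parasites grown in NIH/3T3 mouse fibroblasts as host cells; luminescent beta-galactosidase reporter signal from transgenic T. cruzi replicating inside host cells; inhibitors lower the luminescence signal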
[21] = NIH3T3 cell viability loss – ATP luminescence, mouse fibroblasts, counter-screen, dose response (AID 2010); format: functional, cell-based;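 note: cells exposed to compound for about 90 hours before reading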
[22] = molecular target: DNA dC->dU-editing enzyme APOBEC-3G (Homo sapiens, UniProt Q9HC16); assay: Dose Response confirmation of small molecule APOBEC3G DNA Deaminase Inhibitors via a fluorescence-based single-stranded DNA deaminase assay. [Related pubchem assays (depositor defined):AID493012, AID493028]; format: functional
Chain of DNA dC->dU-editing enzyme APOBEC-3G (Q9HC16 whole entry): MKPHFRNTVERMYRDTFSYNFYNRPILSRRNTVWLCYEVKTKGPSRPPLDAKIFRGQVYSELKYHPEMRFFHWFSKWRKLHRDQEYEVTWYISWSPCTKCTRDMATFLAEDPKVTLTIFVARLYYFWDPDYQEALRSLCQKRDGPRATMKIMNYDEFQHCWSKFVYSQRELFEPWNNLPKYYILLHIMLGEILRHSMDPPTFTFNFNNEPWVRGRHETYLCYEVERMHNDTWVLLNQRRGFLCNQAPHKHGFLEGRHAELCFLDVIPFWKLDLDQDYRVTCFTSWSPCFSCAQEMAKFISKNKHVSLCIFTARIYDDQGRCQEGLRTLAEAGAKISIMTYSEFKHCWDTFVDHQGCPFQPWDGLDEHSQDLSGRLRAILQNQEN

T2 sequence (P49327 whole entry): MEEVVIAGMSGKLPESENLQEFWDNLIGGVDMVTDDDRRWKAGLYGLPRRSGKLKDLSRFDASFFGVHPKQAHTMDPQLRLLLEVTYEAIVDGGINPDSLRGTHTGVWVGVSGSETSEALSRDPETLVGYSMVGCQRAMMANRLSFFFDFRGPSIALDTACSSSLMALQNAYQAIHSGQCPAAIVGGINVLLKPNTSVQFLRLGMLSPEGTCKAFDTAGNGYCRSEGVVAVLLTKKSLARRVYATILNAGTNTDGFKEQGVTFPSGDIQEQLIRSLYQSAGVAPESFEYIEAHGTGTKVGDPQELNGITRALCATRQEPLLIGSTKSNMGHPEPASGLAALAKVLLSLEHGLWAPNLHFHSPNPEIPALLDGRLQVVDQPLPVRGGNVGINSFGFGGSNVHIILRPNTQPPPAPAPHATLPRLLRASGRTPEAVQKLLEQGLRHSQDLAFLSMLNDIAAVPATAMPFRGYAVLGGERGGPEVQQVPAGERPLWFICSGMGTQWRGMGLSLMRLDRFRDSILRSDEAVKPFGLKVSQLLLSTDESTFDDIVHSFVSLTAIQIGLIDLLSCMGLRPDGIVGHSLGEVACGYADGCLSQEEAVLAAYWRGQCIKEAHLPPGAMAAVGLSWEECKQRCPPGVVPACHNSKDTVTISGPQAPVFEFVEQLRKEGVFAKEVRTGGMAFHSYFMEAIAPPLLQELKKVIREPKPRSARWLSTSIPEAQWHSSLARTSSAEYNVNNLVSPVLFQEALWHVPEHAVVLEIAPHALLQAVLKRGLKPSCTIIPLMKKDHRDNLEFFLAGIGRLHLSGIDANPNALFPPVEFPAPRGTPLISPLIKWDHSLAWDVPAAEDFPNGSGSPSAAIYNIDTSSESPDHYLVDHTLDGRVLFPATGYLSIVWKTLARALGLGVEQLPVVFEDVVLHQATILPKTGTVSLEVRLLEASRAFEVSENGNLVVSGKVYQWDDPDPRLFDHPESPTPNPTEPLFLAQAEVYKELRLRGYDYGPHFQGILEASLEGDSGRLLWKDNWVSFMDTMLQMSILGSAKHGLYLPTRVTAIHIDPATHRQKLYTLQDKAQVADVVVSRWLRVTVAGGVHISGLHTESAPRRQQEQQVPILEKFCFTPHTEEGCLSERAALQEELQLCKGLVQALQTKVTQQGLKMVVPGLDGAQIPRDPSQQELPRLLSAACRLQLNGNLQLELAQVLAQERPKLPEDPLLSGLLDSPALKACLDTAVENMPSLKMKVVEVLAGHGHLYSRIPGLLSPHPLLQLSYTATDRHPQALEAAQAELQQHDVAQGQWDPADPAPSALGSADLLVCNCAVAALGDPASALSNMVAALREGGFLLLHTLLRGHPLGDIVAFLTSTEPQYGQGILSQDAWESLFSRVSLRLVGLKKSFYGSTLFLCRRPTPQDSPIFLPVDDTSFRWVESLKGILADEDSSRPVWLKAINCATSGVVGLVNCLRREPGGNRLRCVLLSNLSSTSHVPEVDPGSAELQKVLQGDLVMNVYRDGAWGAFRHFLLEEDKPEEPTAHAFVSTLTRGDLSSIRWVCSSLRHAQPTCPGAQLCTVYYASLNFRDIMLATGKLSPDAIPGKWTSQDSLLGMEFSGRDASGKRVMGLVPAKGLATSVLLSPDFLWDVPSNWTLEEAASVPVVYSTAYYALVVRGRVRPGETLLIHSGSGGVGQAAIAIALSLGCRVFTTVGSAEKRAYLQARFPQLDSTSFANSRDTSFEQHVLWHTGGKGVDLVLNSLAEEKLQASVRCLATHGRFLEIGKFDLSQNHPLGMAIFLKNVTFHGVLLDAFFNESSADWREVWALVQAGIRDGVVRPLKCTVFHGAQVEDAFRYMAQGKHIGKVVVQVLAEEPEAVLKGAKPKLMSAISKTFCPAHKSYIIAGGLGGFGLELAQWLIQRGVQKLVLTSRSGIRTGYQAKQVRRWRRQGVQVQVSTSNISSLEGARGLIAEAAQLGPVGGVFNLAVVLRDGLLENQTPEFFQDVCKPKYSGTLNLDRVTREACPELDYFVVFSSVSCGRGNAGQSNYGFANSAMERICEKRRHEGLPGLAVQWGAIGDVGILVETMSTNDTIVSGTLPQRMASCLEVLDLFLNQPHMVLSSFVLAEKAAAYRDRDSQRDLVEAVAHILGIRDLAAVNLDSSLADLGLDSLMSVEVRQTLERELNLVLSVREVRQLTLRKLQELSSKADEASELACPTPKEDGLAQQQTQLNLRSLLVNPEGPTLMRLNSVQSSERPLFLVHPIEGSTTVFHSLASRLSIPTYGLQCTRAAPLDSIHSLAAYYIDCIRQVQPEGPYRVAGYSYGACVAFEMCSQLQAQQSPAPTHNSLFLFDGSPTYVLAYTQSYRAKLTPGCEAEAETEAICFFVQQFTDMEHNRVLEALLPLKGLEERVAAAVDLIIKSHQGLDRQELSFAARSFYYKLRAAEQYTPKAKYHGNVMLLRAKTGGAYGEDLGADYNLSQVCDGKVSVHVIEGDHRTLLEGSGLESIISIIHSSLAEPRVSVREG
Chain of Protein Wnt-3a (P27467 whole entry): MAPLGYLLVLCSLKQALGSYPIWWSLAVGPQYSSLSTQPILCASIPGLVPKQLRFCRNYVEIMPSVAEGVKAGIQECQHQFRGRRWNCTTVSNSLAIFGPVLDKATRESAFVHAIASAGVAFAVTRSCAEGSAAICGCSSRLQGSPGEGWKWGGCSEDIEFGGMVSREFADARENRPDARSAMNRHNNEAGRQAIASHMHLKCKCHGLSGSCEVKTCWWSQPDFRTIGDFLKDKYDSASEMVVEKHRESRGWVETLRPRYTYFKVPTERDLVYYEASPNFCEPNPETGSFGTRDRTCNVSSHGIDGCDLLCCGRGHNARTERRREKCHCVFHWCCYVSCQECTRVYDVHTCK
Chain of Nonstructural protein 1 (Q194T2 whole entry): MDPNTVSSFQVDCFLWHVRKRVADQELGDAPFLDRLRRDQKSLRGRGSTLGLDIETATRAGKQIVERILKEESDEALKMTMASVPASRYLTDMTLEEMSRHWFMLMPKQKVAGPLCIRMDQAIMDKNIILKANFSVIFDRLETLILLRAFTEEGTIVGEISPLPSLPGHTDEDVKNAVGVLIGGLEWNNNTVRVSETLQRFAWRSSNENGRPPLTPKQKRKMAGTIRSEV

c1ccc(CNc2nc(-c3ccccn3)nc3ccccc23)cc1
EC50 [1]: 2.57 µM (active) | EC50 [2]: 6.86 µM (active) | EC50 [3]: > 150 µM (not active) | AC50 [4]: 80.1 µM (active) | AC50 [5]: 2.62 µM (active)

Cc1cccc(NC(=O)CSc2cccc3cccnc23)c1C
AC50 [4]: 91.7 µM (active)

Cc1ccccc1N(CC(=O)NCc1ccc2c(c1)OCO2)C(=O)C1CSC(=O)C1 (centres undefined)
IC50 [6]: 4.48 µM (active) | IC50 [7]: 5.85 µM (active)

CCOC(=O)N1C(=O)[C@](CC)(c2ccccc2)N1C(=O)OCC
AC50 [8]: 10 µM (active)

COC(=O)c1ccc(C2CC(=O)Nc3cc(OC)c(OC)cc32)cc1 (centres undefined)
AC50 [9]: 32 µM (active)

CCOC(=O)c1c(NC(=O)CN2CCN(C)CC2)sc(C(=O)Nc2ccccc2)c1C
CC50 [10]: > 25 µM (active)

O=C1C=C(c2cccc(Cl)c2O)C[C@@H](c2ccc(F)cc2)C1
IC50 [11]: 1.14 µM (active) | IC50 [12]: 2.61 µM (active)

Cc1ccc(C(=O)N/C(=C\c2cn(S(=O)(=O)N(C)C)c3ccccc23)C(=O)NCCN2CCOCC2)cc1
IC50 [6]: 16.5 µM (active) | IC50 [7]: 12.7 µM (active)

C[C@H]1CN([C@@H](C)CO)C(=O)c2cccc(NC(=O)c3ccncc3)c2O[C@H]1CN(C)C(=O)Nc1ccccc1
AC50 [13]: 2.61 µM (active) | IC50 [14]: 13.8 µM (active)

O=C1/C(=C/c2ccccn2)COc2ccccc21
CC50 [15]: 28.2 µM (active) | IC50 [16]: 20.9 µM (active)

COc1ccc(C2=Nn3c(nnc3-c3ccccn3)SC2)cc1
AC50 [4]: 125 µM (active)

Cc1ccc([N+](=O)[O-])cc1NC(=O)c1ccc(C(C)(C)C)cc1
IC50 [6]: 4.59 µM (active) | IC50 [7]: 5.57 µM (active)

Cc1sc(-c2ccccn2)nc1OC(=O)c1ccc(F)cc1F
IC50 [11]: 16.6 µM (active) | IC50 [12]: 3.57 µM (active)

COc1ccc(/C=C(/NC(=O)c2cccc([N+](=O)[O-])c2)C(=O)O)cc1
AC50 [9]: 84.9 µM (active)

O=C(NCCc1cccc(Cl)c1)c1ccc(OC2CCN(Cc3ccccn3)CC2)cc1
IC50 [17]: 28.8 µM (inactive) | EC50 [18]: 0.944 µM (active)

COc1ccccc1/C=C1\SC(=S)N(CCC(=O)NCCc2ccc(O)cc2)C1=O
CC50 [10]: > 25 µM (active)

CC(OC(=O)c1ccc([N+](=O)[O-])s1)C(=O)NC1CCCCC1C (centres undefined)
AC50 [8]: 12 µM (active) | IC50 [16]: 14.1 µM (active)

C[C@H](CO)N1C[C@H](C)[C@H](CN(C)Cc2ccc(C(F)(F)F)cc2)Oc2c(NC(=O)CCCCCC(=O)Nc3ccccc3N)cccc2C1=O
AC50 [13]: 1.92 µM (active)

C[C@H](CO)N1C[C@H](C)[C@H](CN(C)Cc2ccc(C(=O)Nc3ccccc3N)cc2)Oc2ccc(N(C)C)cc2CC1=O
AC50 [13]: 2.03 µM (active)

C[C@H](CO)N1C[C@H](C)[C@H](CN(C)S(=O)(=O)c2ccccc2)Oc2ccc(NC(=O)Nc3ccc(C(F)(F)F)cc3)cc2CC1=O
AC50 [13]: 4.13 µM (active)

O=[N+]([O-])c1ccc(O)c(/C=N/Nc2nc3ccccc3[nH]2)c1
AC50 [9]: 25.6 µM (active) | EC50 [1]: 0.716 µM (active) | EC50 [2]: 1.56 µM (active) | AC50 [5]: 0.559 µM (active) | IC50 [19]: 10.3 µM (active)

O=C(N/N=C\c1ccc([N+](=O)[O-])o1)C1COc2ccccc2O1 (centres undefined)
AC50 [8]: 7.21 µM (active) | EC50 [20]: 0.532 µM (active) | CC50 [15]: 32.5 µM (active) | IC50 [16]: 4.2 µM (active) | EC50 [21]: > 60 µM (inconclusive)

O=C1C=CC(=O)C=C1 [BENZOQUINONE]
IC50 [22]: 36.1 µM (active)

Reference: ChEMBL document CHEMBL1201862, “PubChem BioAssay data set” (2004)
